Like-named read-outs stand apart in the source and are kept apart here.
Key:
[1] = tested on: TGF-β1; details: monoglyceride 50 μg
Protocol: Solublization of Sn-2 monoglyceride was performed using ethyl alcohol or DMSO for in vitro work on human peripheral blood mononuclear cells (PBMCs). […] SJL mice were fed sn-2 GLA of Example 1 at three doses (50, 125 and 250 μl) for seven days by gavage. […] After seven days animals were killed and the brain, liver and spleen were removed the liver and brain frozen at −70° C. and mononuclear cells were isolated from spleens by sieving and density centrifugation on Lymphoprep (Sigma Chemical Co) and cultured at 37° C. in 5% CO2 atmosphere in 5 ml culture tubesat a cell density of 1×10^6 cells/ml in RPMI 1640 medium in 5% foetal calf serum (FCS). Cells were cultured with and without 1 μg/ml or […] concanavalin A (Con A) for approximately 20 hours and the supernatants removed and stored at −70° C. until required. Mouse […] was measured in supernatants using a commercially available ELISA (Promega, Madison Wis.).

[2] = mouse, in vivo
[3] = tested on: TGF-β1; experiment: TGF-β1 production by spleen mononuclear cells of C57/BL mice dosed orally with 2 GLA MG formal (ELISA); assay type: in vivo; details: for Spleen mononuclear cell TGFβ production: Con A and unstimulated data combined, n=9/group, mean ± SEM
Protocol: C57/BL mice were dosed orally with 2 GLA MG formal at two doses of 50 and 150 ul for eight days. The compound was supplied in 8 separate tubes to be stored at 4° C. prior to dosing but warmed to 25° C. before use.
Data were therefore combined for the purposes of statistical analysis (n=9/group). Data were analysed using Graphpad Instat.

[4] = Storage stability in air at room temperature; assay type: physicochemical; details: similar to GLA, best stored long term in a cool place under nitrogen
Protocol: For the purposes of this exemplification, the synthesis of this ester was carried out by acylation of the commercially available glycerol formal mixture using γ-linolenoyl chloride. By this method a mixture of two products is formed and these were separable by column chromatography. The undesired by-product is eluted off the column first; further elution gives the desired acetal-ester.

Row | SMILES | Change % of TGF-β1 production vs control ([1]; Con A 0 μg/ml) [%] | TGF-β1 production from spleen PBMCs, unstimulated ([1]; Con A 0 μg/ml, fed by gavage for seven days, cells cultured about 20 hours) [pg/mL] | Change % of TGF-β1 production vs control ([1]; Con A 1 μg/ml) [%] | TGF-β1 production from spleen PBMCs, stimulated (Con A) ([1]; Con A 1 μg/ml, fed by gavage for seven days, cells cultured about 20 hours) [pg/mL] | Change % of TGF-β1 production vs control ([1]; Con A 25 μg/ml) [%] | TGF-β1 production from spleen PBMCs, stimulated (Con A) ([1]; Con A 25 μg/ml, fed by gavage for seven days, cells cultured about 20 hours) [pg/mL] | Regurgitation after gavage [2] | Spleen mononuclear cell TGFβ production ([3]; 50 ul orally for eight days) [pg/mL] | Increase of spleen mononuclear cell TGFβ production vs controls ([3]; 150 ul orally for eight days) | Spleen mononuclear cell TGFβ production ([3]; 150 ul orally for eight days) [pg/mL] | Stability in air [4]
1 | CCCCC/C=C\C/C=C\C/C=C\CCCCC(=O)OC(CO)CO [γ-linolenic acid monoglyceride] | 80 | 377 | 79 | 409 | 42 | 480 | prone to regurgitation |  |  |  | 
2 | CCCCC/C=C\C/C=C\C/C=C\CCCCC(=O)OC1COCOC1 [GLA 2-MG-F, 5-(γ-linolenoyloxy)-1,3-dioxan] |  |  |  |  |  |  |  | 90.9 ± 5.2 | P < 0.0001 ↑ 103% | 158.6 ± 7.5 | stable in air at room temperature for short periods (days)

Source: patent publication US8114903B2, “Cytokine modulators using cyclic glycerides of essential polyunsaturated fatty acids” (BTG International Limited, priority 2005, dated 2012)
